Read-outs that look alike come from different tables or passages of the source.
Columns and labels:
mPAD4 = mPAD4 (Mus musculus, UniProt Q9Z183); test: mPAD4 RFMS PAD4 inhibition assay; format: biochemical; conditions: mPAD4, RFMS readout;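 for mPAD4 RFMS pIC50: grade E means pIC50 at most 4 and F means pIC50 4.0 to 5.0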
Method: (§1) Compounds of the present invention were assayed as inhibitors of PAD4 using the assay protocol described below.
(§2) Compound stock solutions were stored at RT. […] Final assay conditions were as follows:
(§3) Total incubation time: 65 mins at 37° C.
(§4) Stop solution: 40 μl 5% TCA in ACN
(§5) The compound numbers correspond to the compound numbers in Table 1. […] The term pIC50=−log(IC50). […] “NA” stands for “not assayed.”

hPAD4 = hPAD4 (Homo sapiens, UniProt Q9UM07); test: hPAD4 RFMS (RapidFire mass spectrometry) PAD4 inhibition assay; format: biochemical; conditions: hPAD4 enzyme, RFMS readout;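 for hPAD4 RFMS pIC50: grade E means pIC50 at most 4 and F means pIC50 4.0 to 5.0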
hPAD4, sequence (Q9UM07 whole entry): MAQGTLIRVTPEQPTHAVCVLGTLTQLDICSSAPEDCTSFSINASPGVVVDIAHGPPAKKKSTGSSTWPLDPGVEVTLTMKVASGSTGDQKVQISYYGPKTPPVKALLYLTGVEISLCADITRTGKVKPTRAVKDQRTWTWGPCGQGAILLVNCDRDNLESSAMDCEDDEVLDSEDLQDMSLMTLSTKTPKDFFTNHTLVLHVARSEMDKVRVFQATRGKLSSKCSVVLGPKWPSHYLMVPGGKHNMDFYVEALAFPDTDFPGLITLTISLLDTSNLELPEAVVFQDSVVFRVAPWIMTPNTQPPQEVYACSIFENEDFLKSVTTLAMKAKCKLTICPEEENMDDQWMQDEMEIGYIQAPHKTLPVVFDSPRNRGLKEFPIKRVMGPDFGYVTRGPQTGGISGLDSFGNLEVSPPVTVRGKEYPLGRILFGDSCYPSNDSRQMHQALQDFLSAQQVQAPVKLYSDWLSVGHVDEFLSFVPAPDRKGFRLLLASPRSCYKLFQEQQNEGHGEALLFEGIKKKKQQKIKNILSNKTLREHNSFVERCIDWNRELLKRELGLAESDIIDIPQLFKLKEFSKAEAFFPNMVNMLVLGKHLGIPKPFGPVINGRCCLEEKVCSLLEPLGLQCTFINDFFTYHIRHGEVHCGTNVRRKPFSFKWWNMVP
Method: as §1, §2, §3, §4, §5

[1] = pIC50=−log(IC50), read-out: mPAD4 RFMS pIC50 (converted)
[2] = pIC50=−log(IC50), read-out: hPAD4 RFMS pIC50 (converted)

mPAD4, sequence (Q9Z183 whole entry): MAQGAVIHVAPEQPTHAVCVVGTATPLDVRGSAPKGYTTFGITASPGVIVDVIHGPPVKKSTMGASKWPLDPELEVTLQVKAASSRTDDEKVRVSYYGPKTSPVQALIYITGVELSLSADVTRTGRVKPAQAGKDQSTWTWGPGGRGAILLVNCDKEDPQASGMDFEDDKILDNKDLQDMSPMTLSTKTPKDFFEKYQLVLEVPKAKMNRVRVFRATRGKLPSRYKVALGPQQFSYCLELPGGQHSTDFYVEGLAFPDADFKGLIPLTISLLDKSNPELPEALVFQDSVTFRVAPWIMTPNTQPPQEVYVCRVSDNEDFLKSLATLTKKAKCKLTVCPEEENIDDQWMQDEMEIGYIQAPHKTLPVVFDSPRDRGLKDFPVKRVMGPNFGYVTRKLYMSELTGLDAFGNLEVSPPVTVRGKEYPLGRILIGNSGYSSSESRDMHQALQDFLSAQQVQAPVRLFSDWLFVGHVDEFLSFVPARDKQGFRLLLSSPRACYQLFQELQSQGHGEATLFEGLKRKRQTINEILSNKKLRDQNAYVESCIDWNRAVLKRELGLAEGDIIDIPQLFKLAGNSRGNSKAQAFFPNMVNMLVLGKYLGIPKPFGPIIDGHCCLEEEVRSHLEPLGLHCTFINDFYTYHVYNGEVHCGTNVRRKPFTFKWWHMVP

Compound	IC50 (mPAD4; [1]) [µM]	IC50 (mPAD4; read-out: mPAD4 RFMS IC50) [µM]	IC50 (hPAD4; [2]) [µM]	IC50 (hPAD4; read-out: hPAD4 RFMS IC50) [µM]	hPAD4 RFMS pIC50 (hPAD4; pIC50=−log(IC50))
CCn1c(-c2cc3cccnc3n2CC2CC2)nc2cc(C(=O)N3CC[C@@H]4CCN[C@@H]4C3)cc(OC)c21 [Compound I-23]	1 to 10	1 to 5	< 1	< 1	
COc1cc(C(=O)N2C[C@H]3CC[C@@H]2[C@@H]3N)cc2nc(-c3cc4cccnc4n3CC3CC3)n([C@H]3C[C@H](F)C3)c12 [Compound I-224]	< 1	< 1	< 1	< 1	
CCOc1cc(C(=O)N2CC(N)CCC2C)cc2nc(-c3cc4cccnc4n3CC3CC3)n(C)c12 (stereo not shown) [Compound I-111]	< 1	< 1	1 to 10	1 to 5	
COc1cc(C(=O)N2C[C@H]3C[C@H](O)[C@@H]2[C@@H]3N)cc2nc(-c3cc4cccnc4n3CC3CC3)n(C)c12 [Compound I-162, (1S,4R,6S,7R)-7-Amino-2-{2-[1-(cyclopropylmethyl)-1H-pyrrolo[2,3-b]pyridin-2-yl]-7-methoxy-1-methyl-1H-1,3-benzodiazole-5-carbonyl}-2-azabicyclo[2.2.1]heptan-6-ol]	1 to 10	1 to 5	< 1	< 1	
COc1cc(C(=O)N2CC[C@@]3(CNCCC3(F)F)C2)cc2nc(-c3cc4cccnc4n3CC3CC3)n(C)c12 [Compound I-108]	10 to 100	> 10	10 to 100	> 10	
CCn1c(-c2nc3cc(C(=O)N4CCC[C@@H](N)C4)cc(OC)c3n2C[C@H]2C[C@@](C)(OC)C2)cc2cccnc21 [Compound I-163]	< 1	< 1	1 to 10	1 to 5	
COc1cc(C(=O)N2CC3COCC3(CN)C2)cc2nc(-c3cc4cccnc4n3CC3CC3)n(C)c12 (racemic) [Compound I-96]	10 to 100	> 10	10 to 100	> 10	
CCn1c(-c2nc3cc(C(=O)N4C[C@@H]5CC[C@H]4[C@H]5N)cc(OC)c3n2C)cc2ccc(OC)nc21 [Compound I-140]	10 to 100	> 10	1 to 10	5 to 10	
COc1ccc2cc(-c3nc4cc(C(=O)N5CCC[C@@H](N)C5)cc(OC(F)F)c4n3C)n(CC3CC3)c2n1 [Compound I-104, (3R)-1-{2-[1-(cyclopropylmethyl)-6-methoxy-1H-pyrrolo[2,3-b]pyridin-2-yl]-7-(difluoromethoxy)-1-methyl-1H-1,3-benzodiazole-5-carbonyl}piperidin-3-amine]	< 1	< 1	< 1	< 1	
CCn1c(-c2nc3cc(C(=O)N4C[C@H]5CC[C@@H]4[C@@H]5N)cc(OC)c3n2C[C@H]2C[C@@](C)(OC)C2)cc2ccc(OC)nc21 [Compound I-206]	< 1	< 1	< 1	< 1	
COc1cc(C(=O)N2C[C@H]3CC[C@@H]2[C@@H]3N)cc2nc(-c3cc4cccnc4n3CC3CC3)n(C[C@H]3C[C@@](C)(OC)C3)c12 [Compound I-181]	< 1	< 1	< 1	< 1	
COc1cc(C(=O)N2C[C@H](N)CC[C@@H]2C)cc2nc(-c3cc4cccnc4n3CC3CC3)n(C)c12 [Compound I-87]	< 1	< 1	< 1	< 1	
COc1cc(C(=O)N2CCOC3(CNC3)C2)cc2nc(-c3cc4cccnc4n3CC3CC3)n(C)c12 [Compound I-122]	> 100	> 10		> 10	E/F
COc1ccc2cc(-c3nc4cc(C(=O)N5CCC[C@@H](N)C5)cc(OC)c4n3CC(F)F)n(CC3CC3)c2n1 [Compound I-94, (3R)-1-{2-[1-(cyclopropylmethyl)-6-methoxy-1H-pyrrolo[2,3-b]pyridin-2-yl]-1-(2,2-difluoroethyl)-7-methoxy-1H-1,3-benzodiazole-5-carbonyl}piperidin-3-amine]	< 1	< 1	< 1	< 1	
CCn1c(-c2nc3cc(C(=O)N4C[C@H]5CC[C@@H]4[C@@H]5N)cc(OC)c3n2C[C@H]2C[C@@](C)(O)C2)cc2cccnc21 [Compound I-155]	< 1	< 1	< 1	< 1	
COc1cc(C(=O)N2C[C@@H](N)C[C@H](F)C2)cc2nc(-c3cc4cccnc4n3CC3CC3)n(C)c12 [Compound I-34]	< 1	< 1	< 1	< 1	
CO[C@H]1CCN(C(=O)c2ccc3c(c2)nc(-c2cc4cccnc4n2CC2CC2)n3C)C[C@H]1N (single isomer, unassigned) [Compound I-65]	10 to 100	> 10	10 to 100	> 10	
COc1cc(C(=O)N2C[C@H](N)C[C@@H](F)C2)cc2nc(-c3cc4cccnc4n3CC3CC3)n(C)c12 [Compound I-35]	< 1	< 1	< 1	< 1	
COc1cc(C(=O)N2C[C@H]3CC[C@@H]2[C@@H]3N)cc2nc(-c3cc4cccnc4n3CC3CC3)n(CC(F)F)c12 [Compound I-233]	< 1	< 1	< 1	< 1	
COc1cc(C(=O)N2CCC(F)C(N)C2)cc2nc(-c3cc4cccnc4n3CC3CC3)n(C)c12 (racemic) [Compound I-75, 1-{2-[1-(Cyclopropylmethyl)-1H-pyrrolo[2,3-b]pyridin-2-yl]-7-methoxy-1-methyl-1H-1,3-benzodiazole-5-carbonyl}-4-fluoropiperidin-3-amine]	1 to 10	1 to 5	1 to 10	1 to 5	
COc1cc(C(=O)N2C[C@H]3CC[C@@H]2[C@@H]3N)cc2nc(-c3cc4cccnc4n3CC3CC3)n(C[C@@H]3CCOC3)c12 [Compound I-232]	< 1	< 1	< 1	< 1	
COc1cc(C(=O)N2CCC[C@@H](N)C2)cc2nc(-c3cc4cccnc4n3CCF)n(C)c12 [Compound I-146]	< 1	< 1	1 to 10	1 to 5	
CCn1c(-c2nc3cc(C(=O)N4CCC[C@@H](N)C4)cc(OC)c3n2CC2CC(F)(F)C2)cc2cccnc21 [Compound I-180]	< 1	< 1	1 to 10	1 to 5	
COc1cc(C(=O)N2C[C@@H]3COC[C@]3(CN)C2)cc2nc(-c3cc4cccnc4n3CC3CC3)n(C)c12 [Compound I-126]	10 to 100	> 10	10 to 100	> 10	
CCn1c(-c2nc3cc(C(=O)N4CCC[C@@H](N)C4)cc(OC)c3n2C)cc2ccc(OC(F)F)nc21 [Compound I-201]	< 1	< 1	< 1	< 1	
CCc1ccc2cc(-c3nc4cc(C(=O)N5CCC[C@@H](N)C5)cc(OC)c4n3CC)n(CC3CC3)c2n1 [Compound I-105, (3R)-1-{2-[1-(cyclopropylmethyl)-6-ethyl-1H-pyrrolo[2,3-b]pyridin-2-yl]-1-ethyl-7-methoxy-1H-1,3-benzodiazole-5-carbonyl}piperidin-3-amine]	< 1	< 1	< 1	< 1	
CCn1c(-c2nc3cc(C(=O)N4C[C@H]5CC[C@@H]4[C@@H]5N)cc(F)c3n2C)cc2cccnc21 [Compound I-165]	1 to 10	1 to 5	1 to 10	1 to 5	
COc1cc(C(=O)N2C[C@@H](N)C[C@H](F)C2)cc2nc(-c3cc4cccnc4n3CC3(C)CC3)n(C)c12 [Compound I-93, (3S,5S)-5-Fluoro-1-(7-methoxy-1-methyl-2-{1-[(1-methylcyclopropyl)methyl]-1H-pyrrolo[2,3-b]pyridin-2-yl}-1H-1,3-benzodiazole-5-carbonyl)piperidin-3-amine]	1 to 10	1 to 5	1 to 10	1 to 5	
